From ChEMBL document CHEMBL1122357, “Alkylation of opioid receptor subtypes by alpha-chlornaltrexamine produces concurrent irreversible agonistic and irreversible antagonistic activities” (J Med Chem, 1983) come the findings set out here.

Holding throughout (format): functional
Assay [1] is filed under the species Cavia porcellus. The experiment in a line: Agonistic effect on untreated guinea pig ileum preparations (GPI).
For assay [2], the species on record is Cavia porcellus. The experiment in a line: Agonistic effect on beta-FNA treated guinea pig ileum preparations (GPI).
The nature of assay [3]: kappa antagonistic effect on beta-FNA treated GPI (IC50 ratio=IC50 after treatment/IC50 before treatment).
A short description of assay [4]: kappa antagonistic effect on beta-FNA and alpha-CNA treated GPI (IC50 ratio=IC50 after treatment/IC50 before treatment).

The IC50 is the midpoint of a concentration-inhibition curve. Read a high IC50 as weaker potency in that assay. Take `Oc1ccc2c3c1O[C@H]1[C@@H](N(CCCl)CCCl)CCC4(O)C(C2)N(CC2CC2)CCC314` (stereo partly specified): the IC50 in the assay listed under Cavia porcellus [1] stood at 5.5 nM; in the assay listed under Cavia porcellus [2], 2.4 nM.
As to `CCOc1ccc2c(c1)C1(C)CCN(CC3CC3)C(C2=O)C1C` (stereo unspecified) [ETHYLKETAZOCINE], the IC50 came to 0.72 nM in the assay filed under Cavia porcellus [1] (Cavia porcellus, Ileum) and 0.69 nM in the assay listed under Cavia porcellus [2] (Cavia porcellus, Ileum). Moreover, the Ratio in assay [3] came out at 1.21; in assay [4] it was 10.1.
